Test results: patent US20250275929A1, “INTRAOPERATIVE TOPICALLY-APPLIED NON-IMPLANTABLE RAPID RELEASE PATCH” (PRIVO TECHNOLOGIES, INC., priority 2017, published 2025)

Assay: HPLC chromatograms of agent from patch and from gamma sterilized patch
Assay type: physicochemical
Excerpt: FIGS. 9A, 9B, and 9C are graphs showing that agent(s) included within a patch, according to embodiments of the present invention, are not modified when incorporated into the patch or when the patch is sterilized. FIG. 9A is a graph showing a high-performance liquid chromatography (H PLC) chromatogram of a cisplatin standard. FIG. 9B is a graph showing an HPLC chromatogram of a patch, which illustrates that the cisplatin was not modified.
The patch is sterilized prior to application to a surgical cavity, for example after the patch is manufactured and before packaging. In some embodiments, gamma sterilization is employed to sterilize the patch. FIGS. 9A-9C show HPLC chromatograms at various stages of product synthesis. The HPLC apparatus was an Agilent 1100 Series HPLC using a water/methanol/sodium lauryl sulfate solvent mixture adjusted to pH 2.5 with trifluoromethanesulfonic acid. FIG. 9A is an HPLC chromatogram of a cisplatin standard. FIG. 9B is an HPLC chromatogram of a cisplatin sample taken from a patch that was dissolved in a solution, which illustrates that the cisplatin was not modified while in the patch. […] Similar experiments were conducted using oxaliplatin and 5-fluorouracil. This experiment proves that the patches are able to be manufactured and sterilized while maintaining the integrity of the agent(s) included within.

N.N.[Cl][Pt][Cl] [cisplatin]
integrity of agent after gamma ray sterilization of patch (HPLC) (gamma ray sterilization for 25 minutes): not modified
integrity of agent while in the patch (HPLC) (sample taken from a patch dissolved in a solution): not modified
